Measured values published in patent US12495798B2, “Nicotinamide compound and herbicidal composition comprising compound” (KOREA RESEARCH INSTITUTE OF CHEMICAL TECHNOLOGY, priority 2019, dated 2025).

Assays:
Type in all cases: in vivo
corn [1] = experiment: Phytotoxicity test for field crops (soil treatment test); parameters: key: 0 (no harm); 9 (complete withered)
Experimental: (§1) Experimental Example 4: Phytotoxicity Test for Field Crops (Soil Treatment Test)
(§2) Soil treatment was performed for sown crops and weeds in a square plastic pot having a surface area of 50 cm^2 filled with sterilized horticultural soil (pH 6.1, organic material 1.0%, clay 21%, silt 17%, sand 52%). As a fertilizer per pot, 0.5 g of horticultural mixed fertilizer (N:P:K=17:21:17) was treated by mixing with soil. Five kinds of crops such as rice, wheat, corn, soybean, and cotton were sown in each pot. One day after sowing, test compound solutions were made by diluting with the diluent (33% acetone, 0.1% Tween-20) so that the final treatment amount of the test compounds was 19˜300 g a.i./ha. The prepared test compound solutions were treated using a spray booth (SB6-016) at a treatment amount of 100 ml per 1 m^2 of treatment area. The treated crops were managed in greenhouse conditions (average temperature 30±5° C., light/dark=14/10 hours). External symptoms and phytotoxicity were visually investigated 10 and 20 days after treatment. In the evaluation of the phytotoxicity for the crop, the grade of 0 (no harm) to 9 (complete withered) was used. The results of Table 10 were obtained by evaluating phytotoxicity value to the untreated control.

cotton [2] = experiment: as above; parameters: key: 0 (no harm); 9 (complete withered)
Experimental: as §1, §2

rice [3] = experiment: as above; parameters: key: 0 (no harm); 9 (complete withered)
Experimental: as §1, §2

soybean [4] = experiment: as above; parameters: key: 0 (no harm); 9 (complete withered)
Experimental: as §1, §2

wheat [5] = experiment: as above; parameters: key: 0 (no harm); 9 (complete withered)
Experimental: as §1, §2

corn [6] = experiment: Phytotoxicity test for upland field crops (foliar treatment test); parameters: key: 0 (no harm); 9 (complete withered)
How it was run: (§3)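 Application rate ranged 19˜300 g a.i./ha, delivered as a foliar spray (100 ml/m^2) in 33% acetone with 0.1% Tween-20 to crops raised at 30±5 °C under 14/10 h light/dark. Symptoms were assessed 7 and 14 days post-treatment, extending to 21 days where necessary, using a 0–9 injury grade relative to untreated control.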

cotton [7] = experiment: as above; parameters: key: 0 (no harm); 9 (complete withered)
How it was run: as §3

rice [8] = experiment: as above; parameters: key: 0 (no harm); 9 (complete withered)
How it was run: as §3

soybean [9] = experiment: as above; parameters: key: 0 (no harm); 9 (complete withered)
How it was run: as §3

wheat [10] = experiment: as above; parameters: key: 0 (no harm); 9 (complete withered)
How it was run: as §3

crabgrass [11] = experiment: Herbicidal activity test against upland field weeds (soil treatment test); parameters: key to Soil treatment herbicidal activity, Crabgrass: 0 (no control); 100 (complete control); settings: 50 g ai/ha, scale 0 (no control) to 100 (complete control)
Experimental: (§4) Experimental Example 2: Herbicidal Activity Test Against Upland Field Weeds (Soil Treatment Test) Soil treatment was performed as follows: After filling a square plastic pot having a surface area of 350 cm^2 with sandy loam mixed with 1 g per pot (350 cm^2) of horticultural mixed fertilizer (N:P:K=11:10:11), seeds (10˜15 grains) or rootstocks (2 pieces) of 5 kinds of grassy weeds of sorghum, barnyard grass, quack grass, crabgrass, fall panicum, and 5 kinds of broadleaf weeds of black nightshade, indian jointvetch, velvetleaf, cocklebur, bindweed, which had been stored in a low temperature (6° C.), were sown. The day after sowing, test compound solutions were made by diluting with a preparation solution (including 50% acetone, 0.1% Tween-20) so that the final treatment amount of the test compounds was 50 or 75 g a.i./ha. The prepared test compound solution was used for treating soil surface by hand-spraying 14 mL per pot in a fume hood. After the treatment, it was managed under the same greenhouse conditions (average temperature 30±5° C., light/dark=14/10 hours), and after 14 days (after 21 days if necessary), the external symptoms and efficacy were investigated according to the scale of 0 (no control) to 100 (complete control). The results of Table 8 were obtained by evaluating weed control value to the untreated control by conducting visual assessment.

fall panicum [12] = experiment: Herbicidal activity test against upland field weeds (foliar treatment test); settings: 50 g ai/ha, scale 0-100
How it was run: (§5)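 Weeds were raised from seed or rootstocks in horticultural soil in a greenhouse (30±5° C., 14/10 h light/dark), then foliage was hand-sprayed with compound at 50 or 75 g a.i./ha in 50% acetone with 0.1% Tween-20. Control was scored visually 0–100 against untreated plants after 14 days, or 21 if needed.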

black nightshade [13] = experiment: Herbicidal activity test against upland field weeds (soil treatment test); parameters: key to Soil treatment herbicidal activity, black nightshade: 0 (no control); 100 (complete control); settings: 50 g ai/ha, scale 0 (no control) to 100 (complete control)
Experimental: as §4

crabgrass [14] = experiment: Herbicidal activity test against upland field weeds (foliar treatment test); settings: 50 g ai/ha, scale 0-100
How it was run: as §5

barnyard grass [15] = experiment: as above; parameters: key to Foliar treatment herbicidal activity, barnyard grass: 0 (no control); 100 (complete control); settings: 50 g ai/ha, scale 0-100
How it was run: as §5

indian jointvetch [16] = experiment: Herbicidal activity test against upland field weeds (soil treatment test); parameters: key to Soil treatment herbicidal activity, Indian jointvetch: 0 (no control); 100 (complete control); settings: 50 g ai/ha, scale 0 (no control) to 100 (complete control)
Experimental: as §4

cocklebur = experiment: Herbicidal activity test against upland field weeds (foliar treatment test); parameters: key to Foliar treatment herbicidal activity, Cocklebur: 0 (no control); 100 (complete control); settings: 50 g ai/ha, scale 0-100
How it was run: as §5

sorghum [17] = experiment: as above; settings: 50 g ai/ha, scale 0-100
How it was run: as §5

velvetleaf [18] = experiment: Herbicidal activity test against upland field weeds (soil treatment test); parameters: key to Soil treatment herbicidal activity, velvet leaf: 0 (no control); 100 (complete control); settings: 50 g ai/ha, scale 0 (no control) to 100 (complete control)
Experimental: as §4

quack grass [19] = experiment: as above; parameters: key to Soil treatment herbicidal activity, quack grass: 0 (no control); 100 (complete control); settings: 50 g ai/ha, scale 0 (no control) to 100 (complete control)
Experimental: as §4

sorghum [20] = experiment: as above; parameters: key to Soil treatment herbicidal activity, Sorghum: 0 (no control); 100 (complete control); settings: 50 g ai/ha, scale 0 (no control) to 100 (complete control)
Experimental: as §4

indian jointvetch [21] = experiment: Herbicidal activity test against upland field weeds (foliar treatment test); settings: 50 g ai/ha, scale 0-100
How it was run: as §5

quack grass [22] = experiment: as above; parameters: key to Foliar treatment herbicidal activity, quack grass: 0 (no control); 100 (complete control); settings: 50 g ai/ha, scale 0-100
How it was run: as §5

fall panicum [23] = experiment: Herbicidal activity test against upland field weeds (soil treatment test); parameters: key to Soil treatment herbicidal activity, Fall panicum: 0 (no control); 100 (complete control); settings: 50 g ai/ha, scale 0 (no control) to 100 (complete control)
Experimental: as §4

bindweed = experiment: Herbicidal activity test against upland field weeds (foliar treatment test); parameters: key to Foliar treatment herbicidal activity, Bindweed: 0 (no control); 100 (complete control); settings: 50 g ai/ha, scale 0-100
How it was run: as §5

velvetleaf [24] = experiment: as above; settings: 50 g ai/ha, scale 0-100
How it was run: as §5

barnyard grass [25] = experiment: Herbicidal activity test against upland field weeds (soil treatment test); parameters: key to Soil treatment herbicidal activity, barnyard grass: 0 (no control); 100 (complete control); settings: 50 g ai/ha, scale 0 (no control) to 100 (complete control)
Experimental: as §4

black nightshade [26] = experiment: Herbicidal activity test against upland field weeds (foliar treatment test); settings: 50 g ai/ha, scale 0-100
How it was run: as §5

Cn1nnnc1NC(=O)c1ccc(C(F)(F)F)nc1Sc1nnnn1C [Compound No. 1-40, N-(1-methyl-1H-tetrazol-5-yl)-2-((1-methyl-1H-tetrazol-5-yl)thio)-6-(trifluoromethyl)nicotinamide]
Soil treatment phytotoxicity, Corn (corn [1]; 50 g ai/ha, Corn (10 days after treatment)): 0 | Soil treatment phytotoxicity, Corn (corn [1]; 50 g ai/ha, Corn (20 days after treatment)): 0 | Soil treatment phytotoxicity, Corn (corn [1]; 100 g ai/ha, Corn (10 days after treatment)): 0 | Soil treatment phytotoxicity, Corn (corn [1]; 100 g ai/ha, Corn (20 days after treatment)): 0 | Soil treatment phytotoxicity, Cotton (cotton [2]; 50 g ai/ha, Cotton (10 days after treatment)): 1 | Soil treatment phytotoxicity, Cotton (cotton [2]; 50 g ai/ha, Cotton (20 days after treatment)): 0 | Soil treatment phytotoxicity, Cotton (cotton [2]; 100 g ai/ha, Cotton (10 days after treatment)): 3 | Soil treatment phytotoxicity, Cotton (cotton [2]; 100 g ai/ha, Cotton (20 days after treatment)): 0 | Soil treatment phytotoxicity, Rice (rice [3]; 50 g ai/ha, Rice (10 days after treatment)): 0 | Soil treatment phytotoxicity, Rice (rice [3]; 50 g ai/ha, Rice (20 days after treatment)): 0 | Soil treatment phytotoxicity, Rice (rice [3]; 100 g ai/ha, Rice (10 days after treatment)): 0 | Soil treatment phytotoxicity, Rice (rice [3]; 100 g ai/ha, Rice (20 days after treatment)): 0 | Soil treatment phytotoxicity, Soybean (soybean [4]; 50 g ai/ha, Soybean (10 days after treatment)): 0 | Soil treatment phytotoxicity, Soybean (soybean [4]; 50 g ai/ha, Soybean (20 days after treatment)): 0 | Soil treatment phytotoxicity, Soybean (soybean [4]; 100 g ai/ha, Soybean (10 days after treatment)): 0 | Soil treatment phytotoxicity, Soybean (soybean [4]; 100 g ai/ha, Soybean (20 days after treatment)): 0 | Soil treatment phytotoxicity, Wheat (wheat [5]; 50 g ai/ha, Wheat (10 days after treatment)): 0 | Soil treatment phytotoxicity, Wheat (wheat [5]; 50 g ai/ha, Wheat (20 days after treatment)): 0 | Soil treatment phytotoxicity, Wheat (wheat [5]; 100 g ai/ha, Wheat (10 days after treatment)): 0 | Soil treatment phytotoxicity, Wheat (wheat [5]; 100 g ai/ha, Wheat (20 days after treatment)): 0 | Foliar treatment phytotoxicity, Corn (corn [6]; 50 g ai/ha, Corn (7 days after treatment)): 0 | Foliar treatment phytotoxicity, Corn (corn [6]; 50 g ai/ha, Corn (14 days after treatment)): 0 | Foliar treatment phytotoxicity, Corn (corn [6]; 100 g ai/ha, Corn (7 days after treatment)): 0 | Foliar treatment phytotoxicity, Corn (corn [6]; 100 g ai/ha, Corn (14 days after treatment)): 0 | Foliar treatment phytotoxicity, Cotton (cotton [7]; 50 g ai/ha, Cotton (7 days after treatment)): 2 | Foliar treatment phytotoxicity, Cotton (cotton [7]; 50 g ai/ha, Cotton (14 days after treatment)): 3 | Foliar treatment phytotoxicity, Cotton (cotton [7]; 100 g ai/ha, Cotton (7 days after treatment)): 3 | Foliar treatment phytotoxicity, Cotton (cotton [7]; 100 g ai/ha, Cotton (14 days after treatment)): 4 | Foliar treatment phytotoxicity, Rice (rice [8]; 50 g ai/ha, Rice (7 days after treatment)): 0 | Foliar treatment phytotoxicity, Rice (rice [8]; 50 g ai/ha, Rice (14 days after treatment)): 0 | Foliar treatment phytotoxicity, Rice (rice [8]; 100 g ai/ha, Rice (7 days after treatment)): 0 | Foliar treatment phytotoxicity, Rice (rice [8]; 100 g ai/ha, Rice (14 days after treatment)): 1 | Foliar treatment phytotoxicity, Soybean (soybean [9]; 50 g ai/ha, Soybean (7 days after treatment)): 6 | Foliar treatment phytotoxicity, Soybean (soybean [9]; 50 g ai/ha, Soybean (14 days after treatment)): 5 | Foliar treatment phytotoxicity, Soybean (soybean [9]; 100 g ai/ha, Soybean (7 days after treatment)): 6 | Foliar treatment phytotoxicity, Soybean (soybean [9]; 100 g ai/ha, Soybean (14 days after treatment)): 5 | Foliar treatment phytotoxicity, Wheat (wheat [10]; 50 g ai/ha, Wheat (7 days after treatment)): 0 | Foliar treatment phytotoxicity, Wheat (wheat [10]; 50 g ai/ha, Wheat (14 days after treatment)): 0 | Foliar treatment phytotoxicity, Wheat (wheat [10]; 100 g ai/ha, Wheat (7 days after treatment)): 1 | Foliar treatment phytotoxicity, Wheat (wheat [10]; 100 g ai/ha, Wheat (14 days after treatment)): 0

CCOC(=O)OC(C)N(C(=S)c1ccc(C(F)(F)F)nc1CSCc1nnn(C)n1)c1nnnn1C (stereo not shown) [Compound No. 4-9, ethyl (1-(N-(1-methyl-1H-tetrazol-5-yl)-2-((((2-methyl-2H-tetrazol-5-yl)methyl)thio)methyl)-6-(trifluoromethyl)pyridin-3-carbothioamido)ethyl)carbonate]
Soil treatment herbicidal activity, Crabgrass (crabgrass [11]): 0 | Foliar treatment herbicidal activity, Fall panicum (fall panicum [12]): 90 | Soil treatment herbicidal activity, black nightshade (black nightshade [13]): 100 | Foliar treatment herbicidal activity, Crabgrass (crabgrass [14]): 98 | Foliar treatment herbicidal activity, barnyard grass (barnyard grass [15]): 100 | Soil treatment herbicidal activity, Indian jointvetch (indian jointvetch [16]): 100 | Foliar treatment herbicidal activity, Cocklebur (cocklebur): 100 | Foliar treatment herbicidal activity, Sorghum (sorghum [17]): 70 | Soil treatment herbicidal activity, velvet leaf (velvetleaf [18]): 100 | Soil treatment herbicidal activity, quack grass (quack grass [19]): 0 | Soil treatment herbicidal activity, Sorghum (sorghum [20]): 0 | Foliar treatment herbicidal activity, Indian jointvetch (indian jointvetch [21]): 98 | Foliar treatment herbicidal activity, quack grass (quack grass [22]): 0 | Soil treatment herbicidal activity, Fall panicum (fall panicum [23]): 0 | Foliar treatment herbicidal activity, Bindweed (bindweed): 100 | Foliar treatment herbicidal activity, velvet leaf (velvetleaf [24]): 98 | Soil treatment herbicidal activity, barnyard grass (barnyard grass [25]): 0 | Foliar treatment herbicidal activity, black nightshade (black nightshade [26]): 98
